From ChEMBL document CHEMBL1151192, “Phorbasterones A-D, cytotoxic nor-ring A steroids from the sponge Phorbas amaranthus” (J Nat Prod, 2004) come the findings set out here.

Converted amounts (≈) assume the structure as drawn.

The experiment deals with HCT-116. In words: Cytotoxicity against human HCT116 cells after 72 hrs by MTS assay. It is filed as functional, cell-based. As to conditions: HCT-116, 72 h. In general terms: Formazan colour is commonly taken as a measure of viable cells.
One may read the IC50 as the midpoint of a concentration-inhibition curve. A lower IC50 goes with inhibition by little substance. In the case of `CCC(/C=C/[C@@H](C)[C@H]1CC[C@H]2[C@@H]3CC=C4C(=O)[C@](O)(C(=O)OC)C[C@]4(C)[C@H]3CC[C@]12C)C(C)C` (mixture of isomers) [PHORBASTERONE C], the IC50 was 1 µg/mL.
In turn, `CCC(CC[C@@H](C)[C@H]1CC[C@H]2[C@@H]3CC=C4C(=O)[C@](O)(C(=O)OC)C[C@]4(C)[C@H]3CC[C@]12C)C(C)C` (mixture of isomers) [PHORBASTERONE D] yielded an IC50 of 1 µg/mL.
The result for `COC(=O)[C@]1(O)C[C@@]2(C)C(=CC[C@H]3[C@@H]4CC[C@H]([C@H](C)/C=C/C(C)C(C)C)[C@@]4(C)CC[C@@H]32)C1=O` (some centres undefined) [PHORBASTERONE A] reads 1 µg/mL (≈ 2.19 µM); that for `COC(=O)[C@]1(O)C[C@@]2(C)C(=CC[C@H]3[C@@H]4CC[C@H]([C@H](C)CCCC(C)C)[C@@]4(C)CC[C@@H]32)C1=O` [PHORBASTERONE B], 1 µg/mL (≈ 2.25 µM).
